Reference: patent publication US9034921B2, “Diphenylmethane derivatives as SGLT2 inhibitors” (GREEN CROSS CORPORATION, priority 2011, dated 2015)

The compounds below were run against human SGLT2 (Homo sapiens (Human), UniProt P31639) (assay: Inhibitory effects on human SGLT2 activities (14C-AMG uptake, sodium-dependent glucose transport assay)). Conditions: CHO cells stably expressing hSGLT2, 37° C., 2 h, single determinations.
Assay type: cell-based
How it was run: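 CHO cells stably expressing hSGLT2 were preincubated 10 min at 37 °C in choline (Na+-free) buffer, then exposed 2 h at 37 °C to compound in Na+ uptake buffer with 8 μM 14C-AMG and 1 mM unlabeled AMG. Radioactivity was scintillation counted; IC50 came from nonlinear regression.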

Chain of human SGLT2 (P31639 whole entry): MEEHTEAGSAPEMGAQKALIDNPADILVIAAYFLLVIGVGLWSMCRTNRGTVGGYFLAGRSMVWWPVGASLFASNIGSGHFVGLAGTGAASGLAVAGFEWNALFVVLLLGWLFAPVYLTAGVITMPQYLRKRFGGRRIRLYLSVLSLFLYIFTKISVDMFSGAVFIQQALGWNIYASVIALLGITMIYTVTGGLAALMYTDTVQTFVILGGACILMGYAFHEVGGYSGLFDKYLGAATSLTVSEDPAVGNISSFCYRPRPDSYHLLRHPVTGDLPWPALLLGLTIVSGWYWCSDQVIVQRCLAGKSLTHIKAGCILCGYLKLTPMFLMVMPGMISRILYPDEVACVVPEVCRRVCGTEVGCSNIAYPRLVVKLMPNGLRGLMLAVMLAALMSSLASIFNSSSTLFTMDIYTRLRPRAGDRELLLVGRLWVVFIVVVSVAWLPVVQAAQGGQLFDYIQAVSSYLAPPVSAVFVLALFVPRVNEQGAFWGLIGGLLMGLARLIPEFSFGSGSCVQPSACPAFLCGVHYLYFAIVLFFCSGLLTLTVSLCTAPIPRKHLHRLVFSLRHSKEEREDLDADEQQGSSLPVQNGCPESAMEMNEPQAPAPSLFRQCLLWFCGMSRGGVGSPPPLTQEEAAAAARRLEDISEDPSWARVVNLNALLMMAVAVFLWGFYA

Q: Which IC50 does the source give for `OC[C@H]1O[C@@H](c2cc(Cc3ccc(OC4CCCC4)cc3)c(Cl)c3c2CCO3)[C@H](O)[C@@H](O)[C@@H]1O` [Example E232, (2S,3R,4R,5S,6R)-2-(7-Chloro-6-(4-(cyclopentyloxy)benzyl)-2,3-dihydrobenzofuran-4-yl)-6-(hydroxymethyl)-tetrahydro-2H-pyran-3,4,5-triol] here?
A: 1.6 nM

Q: With `OC[C@H]1O[C@@H](c2cc(Cc3ccc(C4CCCC4)cc3)c(Cl)c3c2CCO3)[C@H](O)[C@@H](O)[C@@H]1O` [Example E233, (2S,3R,4R,5S,6R)-2-(7-Chloro-6-(4-cyclopentylbenzyl)-2,3-dihydrobenzofuran-4-yl)-6-(hydroxymethyl)-tetrahydro-2H-pyran-3,4,5-triol] as the compound, how does the IC50 read?
A: 1.16 nM

Q: `OC[C@H]1O[C@@H](c2cc(Cc3ccc(OC4CCC4)cc3)c(Cl)c3c2CCO3)[C@H](O)[C@@H](O)[C@@H]1O` [Example E234, (2S,3R,4R,5S,6R)-2-(7-Chloro-6-(4-cyclobutoxybenzyl)-2,3-dihydrobenzofuran-4-yl)-6-(hydroxymethyl)-tetrahydro-2H-pyran-3,4,5-triol] was tested. Which IC50 did it give?
A: 2.82 nM

Q: `COc1ccc(Cc2cc([C@@H]3O[C@H](CO)[C@@H](O)[C@H](O)[C@H]3O)c3c(c2C(F)F)CCC3)cc1` [Example E237, (2S,3R,4R,5S,6R)-2-(7-(Difluoromethyl)-6-(4-methoxybenzyl)-2,3-dihydro-1H-inden-4-yl)-6-(hydroxymethyl)tetrahydro-2H-pyran-3,4,5-triol] was tested. Which IC50 did it give?
A: 0.734 nM

Q: Which IC50 does the source give for `CCc1ccc(Cc2cc([C@@H]3O[C@H](CO)[C@@H](O)[C@H](O)[C@H]3O)c3c(c2Cl)CCC3)cc1` [Example E238, (2S,3R,4R,5S,6R)-2-(7-Chloro-6-(4-ethylbenzyl)-2,3-dihydro-1H-inden-4-yl)-6-(hydroxymethyl)tetrahydro-2H-pyran-3,4,5-triol] here?
A: 0.627 nM

Q: How did the IC50 turn out when `CCc1ccc(Cc2cc([C@@H]3O[C@H](CO)[C@@H](O)[C@H](O)[C@H]3O)c3c(c2C(F)F)CCC3)cc1` [Example E239, (2S,3R,4R,5S,6R)-2-(7-(Difluoromethyl)-6-(4-ethylbenzyl)-2,3-dihydro-1H-inden-4-yl)-6-(hydroxymethyl)tetrahydro-2H-pyran-3,4,5-triol] was run?
A: 0.718 nM

Q: For `COc1ccc(Cc2cc([C@@H]3O[C@H](CO)[C@@H](O)[C@H](O)[C@H]3O)c3c(c2Cl)SCC3)cc1` [Example E241, (2S,3R,4R,5S,6R)-2-(7-Chloro-6-(4-methoxybenzyl)-2,3-dihydrobenzo[b]thiophen-4-yl)-6-(hydroxymethyl)tetrahydro-2H-pyran-3,4,5-triol], which IC50 is on record?
A: 0.902 nM

Q: For `COc1ccc(Cc2cc([C@@H]3O[C@H](CO)[C@@H](O)[C@H](O)[C@H]3O)c3c(c2Cl)SCCC3)cc1` [Example E242, (2S,3R,4R,5S,6R)-2-(8-Chloro-7-(4-methoxybenzyl)thiochroman-5-yl)-6-(hydroxymethyl)tetrahydro-2H-pyran-3,4,5-triol], which IC50 is on record?
A: 0.552 nM
